According to patent US3997549A, “N-arylsulfenylated derivatives of benzofuranyl methylcarbamates” (priority 1973, dated 1976):
Values after ≈ are worked out from the molar mass of the structure shown. Like-named read-outs stand apart in the source and are kept apart here.

Experiments:
milkweed bug [1] = experiment: Residual contact activity, milkweed bug; conditions: Oncopeltus fasciatus, 48 h, read-out: % Kill, MWB (residual contact)
pea aphid [2] = experiment: whole plant or invertebrate; conditions: Acyrthosiphon pisum, 48 h, read-out: % Kill, PA (systemic)
southern army worm [3] = experiment: Residual contact activity, southern army worm; conditions: 1250 ppm; 7 days; 2880 min
two-spotted spider mite [4] = experiment: Residual contact activity, two-spotted spider mite; conditions: Tetranychus urticae, 48 h, read-out: % Kill, SM (residual contact)
plum curculio [5] = experiment: Initial contact activity, plum curculio; conditions: Conotrachelus nenuphar, 48 h, read-out: % Kill, PC (initial contact)
granary weevil [6] = experiment: Initial contact activity, granary weevil; conditions: Sitophilus granarius, 48 h, read-out: % Kill, GW (initial contact)
Culex fatigans = experiment: whole plant or invertebrate; conditions: Culex quinquefasciatus, 24 h, read-out: Mosquitoes LC50
Method: The appropriate amount of stock solution was added with stirring to 100 ml of tap water and 20-25 fourth instar larvae of Culex fatigans were placed in the solution. After twenty-four hours, the counts were taken. Larvae not able to rise to the surface on touch were counted as dead. Each concentration was run in duplicate and each material was run on two or three different days. The average percent mortality was plotted against the logarithm of the concentration (in ppm) and the LC50 value determined by inspection.

confused flour beetle [7] = experiment: Initial contact activity, confused flour beetle; type: in vivo; conditions: Tribolium confusum, read-out: % Kill, FB (initial contact)
Method: (§1) Initial Contact Activity: One-half gram of test compound was dissolved in 40 ml of acetone and this solution was dispersed in 360 ml of water containing one drop of isooctyl phenyl polyethoxyethanol. An aliquot of this solution was diluted with water to provide a solution containing 1250 ppm of active ingredient. Test organisms and techniques were as follows: The activities against the Mexican bean beetle (Epilachna varivestis Muls.) and the southern army worm (Prodenia eridania [Cram.]) were evaluated by dipping the leaves of pinto bean plants into the test solution and infesting the leaves with the appropriate immature form insects when the foliage had dried; the activity against the pea aphid (Macrosiphum pisi [Harris]) was evaluated on broad bean plants whose leaves were dipped before infestation with adult aphids; the activity against the two-spotted spider mite (Tetranychus urticae [L.]) was evaluated on pinto bean plants whose leaves were dipped after infestation with adult mites; the activities against the milkweed bug (Oncopeltus fascinatus [Dallas]) and the plum curculio (Conotrachelus nenuphar [Herbst]) were evaluated by spraying the test solutions into glass dishes containing the adult insects; the activities against the granary weevil (Sitophilus granarius [L.]) and the confused flour beetle (Tribolium confusum [duVal]) were evaluated by introducing the insects into glass dishes which had been previously sprayed with test solution and allowed to dry. All organisms in the test were maintained in a holding room at 80° F. and 50% relative humidity for an exposure period of forty-eight hours. At this time the number of dead and living insects were counted and the percent kill was calculated.

Mexican bean beetle [8] = experiment: Initial contact activity, Mexican bean beetle; conditions: Epilachna varivestis, 48 h, read-out: % Kill, BB (initial contact)
pea aphid [9] = experiment: Initial contact activity, pea aphid; conditions: Acyrthosiphon pisum, 48 h, read-out: % Kill, PA (initial contact)
granary weevil [10] = experiment: Residual contact activity, granary weevil; conditions: Sitophilus granarius, 48 h, read-out: % Kill, GW (residual contact)
southern army worm [11] = experiment: Initial contact activity, southern army worm; conditions: 1250 ppm, 48 h exposure
plum curculio [12] = experiment: Residual contact activity, plum curculio; conditions: Conotrachelus nenuphar, 48 h, read-out: % Kill, PC (residual contact)
pea aphid [13] = experiment: Residual contact activity, pea aphid; conditions: Acyrthosiphon pisum, 48 h, read-out: % Kill, PA (residual contact)
southern army worm [14] = conditions: 2880 min
in vivo = conditions: mouse, po
Method: Acute oral toxicity of the compounds of the present invention to mice was determined after the manner of Hollingworth, Fukuto, and Metcalf in J. Agr. […] A dose of 0.25 ml of each solution was administered to each of four female white Swiss mice using the "bolus" - tipped syringe. […] Final mortality determinations were made forty-eight hours after treatment.

Mexican bean beetle [15] = experiment: whole plant or invertebrate; conditions: Epilachna varivestis, 48 h, read-out: % Kill, BB (systemic)
confused flour beetle [16] = experiment: Residual contact activity, confused flour beetle; type: in vivo; conditions: Tribolium confusum, 48 h, read-out: % Kill, FB (residual contact)
Method: as §1
The residual contact activity of the compounds was determined on the same organisms using the technique described above, except that in each case the treated surface was allowed to dry and was exposed to normal light and air for seven days before introduction of the mites or insects. The compounds show a high order of residual activity toward the test insects.

Mexican bean beetle [17] = experiment: Residual contact activity, Mexican bean beetle; conditions: Epilachna varivestis, 48 h, read-out: % Kill, BB (residual contact)
two-spotted spider mite [18] = experiment: whole plant or invertebrate; conditions: Tetranychus urticae, 48 h, read-out: % Kill, SM (systemic)
two-spotted spider mite [19] = experiment: Initial contact activity, two-spotted spider mite; conditions: Tetranychus urticae, 48 h, read-out: % Kill, SM (initial contact)
houseflies = experiment: whole plant or invertebrate; conditions: Musca domestica, topical, 24 h, read-out: Houseflies LD50
Method: Toxicity of the compounds of the present invention to houseflies was tested using the technique described by March and Metcalf in Bull. Calif. State Dept. Agr. […] Adult female houseflies were treated with one drop of acetone solution, applied to the prothorax, using a syringe calibrated to deliver 1.00 ± 0.05 mm^3 drops. Twenty flies were treated at each dosage, each test compound was applied at 8 to 10 dosage levels. Each test was replicated three times. […] A one-inch square of cotton saturated with 40% sugar solution was provided for food in each carton. The cartons of flies were held in a constant temperature chamber at 60° F and 60% relative humidity for 24 hours before mortality counts were made. Flies totally unable to make crawling or walking movements were counted as dead. LD50 values were calculated in the conventional manner.

milkweed bug [20] = experiment: Initial contact activity, milkweed bug; conditions: Oncopeltus fasciatus, 48 h, read-out: % Kill, MWB (initial contact)
[21] = 39 ppm soil watering, separate test vs carbofuran

Compound	mortality at 1250 ppm (milkweed bug [1]) [%]	mortality at 39 ppm (pea aphid [2]) [%]	% Kill, AW (residual contact) (southern army worm [3]) [%]	mortality at 1250 ppm (two-spotted spider mite [4]) [%]	mortality at 1250 ppm (plum curculio [5]) [%]	mortality at 1250 ppm (granary weevil [6]) [%]	LC50 (Culex fatigans) [ng/mL]	mortality at 1250 ppm (Mexican bean beetle [8]) [%]	mortality at 1250 ppm (granary weevil [10]) [%]	% Kill, AW (initial contact) (southern army worm [11]) [%]	mortality at 1250 ppm (plum curculio [12]) [%]	% Kill, AW (systemic) (southern army worm [14]; [21]) [%]	% Kill, AW (systemic) (southern army worm [14]; 156 ppm soil watering) [%]	LD50 at 48 h (in vivo) [mg/kg]	mortality at 39 ppm (Mexican bean beetle [15]) [%]	mortality at 156 ppm (Mexican bean beetle [15]) [%]	mortality at 1250 ppm (Mexican bean beetle [17]) [%]	mortality at 39 ppm (two-spotted spider mite [18]) [%]	mortality at 156 ppm (two-spotted spider mite [18]) [%]	mortality at 1250 ppm (two-spotted spider mite [19]) [%]	other results
Cc1cccc(SN(C)C(=O)Oc2cccc3c2OC(C)(C)C3)c1 [Example X, 2,3-Dihydro-2,2-dimethyl-7-benzofuranyl (3-methylphenylthio)(methyl)carbamate]	100	100	100	30	100	100	4 (≈ 0.0116 µM)	100	100	100	95	100	100	25 to 50	100	100	100	26	28	100	mortality at 156 ppm (pea aphid [2]): 100%; mortality at 1250 ppm (confused flour beetle [7]; 1250 ppm, 48 h exposure): 100%; mortality at 1250 ppm (pea aphid [9]): 100%; mortality at 1250 ppm (pea aphid [13]): 100%; mortality at 1250 ppm (confused flour beetle [16]; 1250 ppm, 7 days): 100%; LD50 (houseflies): 6.5 mg/kg; mortality at 1250 ppm (milkweed bug [20]): 100%
Cc1cc(C(C)(C)C)ccc1SN(C)C(=O)Oc1cccc2c1OC(C)(C)C2 [Example VI, 2,3-Dihydro-2,2-dimethyl-7-benzofuranyl [4-(tert-butyl)-2-methylphenylthio] (methyl)carbamate]	95	35	100	7	100	100	2 (≈ 0.00501 µM)	100	100	95	53	0	0	75 to 125	85	100	100	11	6	77	mortality at 156 ppm (pea aphid [2]): 95%; mortality at 1250 ppm (confused flour beetle [7]; 1250 ppm, 48 h exposure): 90%; mortality at 1250 ppm (pea aphid [9]): 0%; mortality at 1250 ppm (pea aphid [13]): 0%; mortality at 1250 ppm (confused flour beetle [16]; 1250 ppm, 7 days): 100%; LD50 (houseflies): 7.5 mg/kg; mortality at 1250 ppm (milkweed bug [20]): 100%
Cc1ccc(SN(C)C(=O)Oc2cccc3c2OC(C)(C)C3)cc1 [IV, 2,3-Dihydro-2,2-dimethyl-7-benzofuranyl(methyl)(4-methylphenylthio)carbamate]	100	100	100	94	100	100	4.5 (≈ 0.0131 µM)	100	100	100	100	100	100	100 to 125	100	100	100	24	64	100	mortality at 1250 ppm (confused flour beetle [7]; 48 h): 100%; mortality at 1250 ppm (confused flour beetle [16]): 92%; LD50 (houseflies): 9 mg/kg; mortality at 1250 ppm (milkweed bug [20]): 100%
